Measurements as given in patent US7098248B2, “Beta-adrenergic blockade reversal of catabolism after severe burn” (Research Development Foundation, priority 2001, dated 2006).
“Also recorded” adds a separate entry of the source.

Assays:
[1] = system: severely burned (>40% total body surface area) children; test: Serum glucose, potassium and hormone values; conditions: result in words
[2] = system: severely burned (>40% total body surface area) children; test: Stable isotope cross-leg skeletal muscle protein kinetic study
[3] = system: severely burned (>40% total body surface area) children; test: Vital signs (hourly heart rate, blood pressure, temperature)
[4] = system: severely burned (>40% total body surface area) children; test: Clinical safety: sepsis, held doses, complications during hospitalization; format: in vivo, human
[5] = system: severely burned (>40% total body surface area) children; test: Fat-free mass by whole body potassium 40 counting; format: in vivo, human
Procedure: (§1) Two weeks after treatment was started, a second series of metabolic and protein kinetic studies was performed. Subjects who received at least a four-week treatment course underwent a second whole-body potassium measurement. At discharge, subjects underwent body composition scanning by a dual image x-ray absorptiometry.
Determination of Fat-Free Mass using Potassium 40 Whole Body Counting. Fat-Free Mass was determined by Whole Body Potassium 40 (^40K) scintillation counting in a heavily shielded low background noise counting room, a 32 NaI detector array, and computed data analysis which has been validated for use in children.^20,21 The counting precision of the instrument used is <1.5%, which was calibrated daily using BOMAB Phantoms with simulated fat overlays. All studies were done after feedings and IV fluids were discontinued to minimize exogenous potassium contamination.

[6] = system: severely burned (>40% total body surface area) children; test: Energy expenditure by metabolic cart (indirect calorimetry); format: in vivo, human
Procedure: Between midnight and 5 AM on the day of study, oxygen consumption (VO2), carbon dioxide production (VCO2), respiratory quotient (RQ) and resting energy expenditure (REE) were determined with a metabolic cart (Sensormedics Model 2900; Yorba Linda, Calif.) at 30° C. ambient room temperature during continuous feeding.

[7] = system: severely burned (>40% total body surface area) children; test: Lean body mass by dual image x-ray absorptiometry (DEXA); format: in vivo, human
Procedure: as §1
Total body lean mass and fat mass were measured by dual image x-ray absorptometry. A Hologic model QDR-4500W DEXA (Hologic Inc, Waltham, Mass.) with the pediatric software package was used to measure body composition.

[8] = after treatment, n = 11, model derived, mean, listed as heads read shifted one entry
[9] = result in words, listed as propranolol
[10] = two weeks of oral propranolol, mean ± SEM
[11] = between metabolic studies, result in words

## CC(C)NCC(O)COc1cccc2ccccc12 (stereo not drawn) [Propranolol, propranolol]
[1]
  Serum potassium values vs non-treated group: higher
[2]; after treatment, n = 11, mean
  FSR, fractional synthetic rate, rate of incorporation of tracer into muscle over time: 0.34 %/hr
[2]; [8]
  FM,A, inward transport into myocyte: 0.264 μmol Phe/min/100 ml leg
  FM,O, muscle protein breakdown: 0.287 μmol Phe/min/100 ml leg
  FO,M, muscle protein synthesis: 0.337 μmol Phe/min/100 ml leg
  FV,A, A→V shunt past muscle: 0.821 μmol Phe/min/100 ml leg
  FV,M, outward transport from myocyte: 0.214 μmol Phe/min/100 ml leg
  Fin, amino acid inflow into leg via femoral artery: 1.085 μmol Phe/min/100 ml leg
  Fout, amino acid outflow from leg via femoral vein: 1.034 μmol Phe/min/100 ml leg
  Rd, rate of disappearance, approximating protein synthesis: 0.157 μmol Phe/min/100 ml leg
[2]; long-term β-blockade, result in words
  Protein synthesis measured by direct incorporation of the tracer: increased
[2]; result in words
  Muscle protein net balance from baseline and vs non-treated controls: improved
[2]; [9]
  Muscle protein net balance from baseline and vs non-treated controls: achieved anabolic levels
[3]; during beta blockade, p<0.05, result in words
  Heart rates vs baseline and control group: lower than baseline and lower than those of the control group
[3]; oral propranolol titrated, p=0.03
  Decrease in heart rate compared with patient's own baseline and with non-treated controls: 20%
[3]; [9]
  Blood pressure vs non-treated group / with treatment: not statistically different; also recorded: no significant decrease
[3]; [10]
  Diastolic blood pressure, change from baseline: −5 ± 5 mm/mHg
  Mean arterial pressure, change from baseline: 1 ± 8 mHg
  Systolic blood pressure, change from baseline: −4 ± 5 mHg
[4]; during hospitalization, p=1.0 vs controls
  Subjects who developed sepsis: 4 of 13
[4]; during treatment course
  Subjects in whom one or more doses were held temporarily for a mean arterial pressure between 60 and 65: 3 of 13
[4]; result in words
  Asthma: No asthma occurred
  Evidence of tissue hypoperfusion (wound conversion to full thickness, metabolic acidosis): No other direct or indirect evidence of tissue hypoperfusion
  Negative clinical sequela resulting from β-blockade: No negative clinical sequela
[5]; 4 weeks of treatment, twelve propranolol subjects, p=0.003 vs controls
  Loss of fat free mass: 1%
[5]; four weeks of treatment, result in words
  Fat free mass by whole body potassium counter: did not change; also recorded: preserved
[6]; [11]
  Carbon dioxide production vs non-treated group: significant decreases
  Oxygen consumption vs non-treated group: significant decreases
  Respiratory quotient: did not change
[6]; [9]
  Resting energy expenditure vs baseline / non-treated group: lower than baseline and lower than those of the control group; also recorded: significant decreases
[6]; [10]
  Carbon dioxide production, change from baseline: −64 ± 22
  Oxygen consumption, change from baseline: −56 ± 22
  Respiratory quotient, change from baseline: −0.1 ± 0.1
  Resting energy expenditure, change from baseline: −422 ± 197
[7]; at discharge, p=0.01
  Improvement of lean body mass percentage vs non-treated control group: ~6%
[7]; at full healing and discharge, 9 treated subjects
  Lean body mass percentage: 79.1±1.2%
